Assay [1] has as its target T1, purified recombinantly expressed human SSAO (Homo sapiens, UniProt Q16853).
T1 construct: made in house
T1 sequence (Q16853 1-763): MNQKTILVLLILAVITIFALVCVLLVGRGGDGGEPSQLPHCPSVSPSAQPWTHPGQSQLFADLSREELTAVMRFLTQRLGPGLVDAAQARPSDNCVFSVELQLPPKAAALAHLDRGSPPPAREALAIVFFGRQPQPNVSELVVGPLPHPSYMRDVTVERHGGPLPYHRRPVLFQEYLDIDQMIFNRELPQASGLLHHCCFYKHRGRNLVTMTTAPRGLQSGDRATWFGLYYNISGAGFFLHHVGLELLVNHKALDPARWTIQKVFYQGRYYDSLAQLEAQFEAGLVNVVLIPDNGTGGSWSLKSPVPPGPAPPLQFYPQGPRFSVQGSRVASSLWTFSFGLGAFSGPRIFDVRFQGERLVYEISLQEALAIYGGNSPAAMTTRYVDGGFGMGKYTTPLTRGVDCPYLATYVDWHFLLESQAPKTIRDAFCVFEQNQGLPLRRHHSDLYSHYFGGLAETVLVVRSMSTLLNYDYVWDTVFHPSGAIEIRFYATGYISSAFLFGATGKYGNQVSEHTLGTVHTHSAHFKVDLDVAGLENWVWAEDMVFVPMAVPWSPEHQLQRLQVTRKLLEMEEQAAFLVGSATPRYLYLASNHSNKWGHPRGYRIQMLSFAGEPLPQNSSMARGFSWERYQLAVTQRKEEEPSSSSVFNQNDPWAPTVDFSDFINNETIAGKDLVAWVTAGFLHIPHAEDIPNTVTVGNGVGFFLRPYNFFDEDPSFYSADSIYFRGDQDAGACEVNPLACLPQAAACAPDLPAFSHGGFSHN
The assay can be described thus: SSAO enzyme inhibition assay (benzylamine substrate; hydrogen peroxide/HRP-coupled or 14C aldehyde detection). As to conditions: SSAO inhibitory activity, RT. The class given is biochemical. A digest of the protocol:
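IC50 values came from a four-parameter logistic fit of % signal decrease versus DMSO control, with no-enzyme background subtracted. Two read-outs were used with human recombinant SSAO after ~15 min compound pre-incubation at RT. In the H2O2/HRP-Amplex read-out, enzyme was 1 ug/ml and benzylamine 100 uM (pH 7.4 phosphate), with resorufin fluorescence followed 1-2 h. In the 14C-benzaldehyde read-out (PBS), enzyme was 10 ug/ml and benzylamine 40 uM, run 1 h then acid-stopped.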

Assay [2] has as its target T2, human ether a go-go related gene (hERG) K+ channel (Homo sapiens, UniProt Q12809).
T2 construct: a Chinese Hamster Lung cell line stably expressing the full length hERG channel; expressed in transfected cells; host or cells: Chinese Hamster Lung cell line
The assay can be described thus: hERG assay, IonWorks patch clamp electrophysiology. The class given is cell-based. As to conditions: Chinese Hamster Lung cell line stably expressing hERG; max assay concentration 11 uM. Here is the method: Compounds of the invention were tested for inhibition of the human ether a go-go related gene (hERG) K^+ channel using IonWorks patch clamp electrophysiology. 8 Point concentration-response curves were generated on two occasions using 3-fold serial dilutions from the maximum assay concentration (11 uM). Electrophysiological recordings were made from a Chinese Hamster Lung cell line stably expressing the full length hERG channel. Single cell ion currents were measured in the perforated patch clamp configuration (100 ug/mL amphoterocin) at room temperature using an IonWorks Quattro instrument. The internal solution contained 140 mM KCl, 1 mM MgCl2, 1 mM EGTA and 20 mM HEPES and was buffered to pH 7.3. The external solution contained 138 mM NaCl, 2.7 mM KCl, 0.9 mM CaCl2, 0.5 mM MgCl2, 8 mM Na2HPO4 and 1.5 mM KH2PO4, and was buffered to pH 7.3. […] This sequence was repeated 5 times at a frequency of 0.25 Hz. Currents were measured from the tail step at the 5th pulse, and referenced to the holding current. Compounds were incubated for 6-7 min prior to a second measurement of the hERG signal using an identical pulse train. […] A control compound (quinidine) was used (see Table 20 below).

The record followed here is patent US20150258101A1 (Proximagen Limited, priority 2014, published 2015).

The structures appear in SMILES notation. Where a name gives a salt, the structure may show the parent alone.

T2 sequence (Q12809 whole entry): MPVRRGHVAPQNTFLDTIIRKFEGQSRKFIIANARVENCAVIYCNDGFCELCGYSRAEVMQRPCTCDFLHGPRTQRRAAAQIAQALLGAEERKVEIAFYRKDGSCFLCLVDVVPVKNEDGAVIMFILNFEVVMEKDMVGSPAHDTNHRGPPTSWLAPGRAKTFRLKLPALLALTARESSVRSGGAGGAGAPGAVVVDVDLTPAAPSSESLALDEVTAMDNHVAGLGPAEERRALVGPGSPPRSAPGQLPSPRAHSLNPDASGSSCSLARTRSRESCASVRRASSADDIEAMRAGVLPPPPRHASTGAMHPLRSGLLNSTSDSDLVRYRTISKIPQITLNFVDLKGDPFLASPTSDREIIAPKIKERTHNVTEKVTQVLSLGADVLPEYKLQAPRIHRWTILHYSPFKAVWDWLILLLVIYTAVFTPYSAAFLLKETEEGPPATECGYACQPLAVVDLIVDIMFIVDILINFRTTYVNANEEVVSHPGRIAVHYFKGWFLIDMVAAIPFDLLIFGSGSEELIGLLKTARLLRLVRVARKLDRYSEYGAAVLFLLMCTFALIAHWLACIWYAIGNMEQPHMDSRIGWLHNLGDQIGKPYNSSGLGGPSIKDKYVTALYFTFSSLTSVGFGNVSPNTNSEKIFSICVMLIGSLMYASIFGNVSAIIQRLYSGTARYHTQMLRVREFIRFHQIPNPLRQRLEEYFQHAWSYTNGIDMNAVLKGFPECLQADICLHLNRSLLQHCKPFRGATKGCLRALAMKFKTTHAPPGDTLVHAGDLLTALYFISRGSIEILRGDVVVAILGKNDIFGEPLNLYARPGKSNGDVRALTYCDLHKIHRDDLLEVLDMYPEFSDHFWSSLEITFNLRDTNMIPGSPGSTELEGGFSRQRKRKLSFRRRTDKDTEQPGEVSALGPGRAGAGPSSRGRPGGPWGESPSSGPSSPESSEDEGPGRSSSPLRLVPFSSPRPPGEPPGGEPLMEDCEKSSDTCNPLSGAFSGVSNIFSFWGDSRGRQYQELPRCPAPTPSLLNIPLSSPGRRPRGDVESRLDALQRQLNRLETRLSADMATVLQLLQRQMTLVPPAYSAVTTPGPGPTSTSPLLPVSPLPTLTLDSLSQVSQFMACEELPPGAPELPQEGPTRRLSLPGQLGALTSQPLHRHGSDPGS

The term IC50 denotes the concentration at which inhibition is half-maximal. As for `O=C1CN(c2ncc(-c3nc4ccncc4n3-c3ccc(Cl)cc3)cn2)CCN1` [Example 13, 4-{5-[3-(4-Chlorophenyl)-3H-imidazo[4,5-c]pyridin-2-yl]pyrimidin-2-yl}piperazin-2-one], the IC50 in assay [1] was under 50 nM; in assay [2], over 10000 nM.
In the same order, the values of `c1ccc(-n2c(-c3cnc(N4CCOCC4)nc3)nc3ccncc32)cc1` [Example 95, 4-(5-{3-Phenyl-3H-imidazo[4,5-c]pyridin-2-yl}pyrimidin-2-yl)morpholine] are 50 to 200 nM and over 10000 nM.
The corresponding values for `Cc1ccc(-n2c(-c3cnc(N4CCOCC4)nc3)nc3ccncc32)cc1` [Example 57, 4-{5-[3-(4-Methylphenyl)-3H-imidazo[4,5-c]pyridin-2-yl]pyrimidin-2-yl}morpholine] are 50 to 200 nM and over 10000 nM.
The corresponding values for `O=C1CN(c2ncc(-c3nc4ccncc4n3-c3ccc(F)cc3)cn2)CCN1` [Example 12, 4-{5-[3-(4-Fluorophenyl)-3H-imidazo[4,5-c]pyridin-2-yl]pyrimidin-2-yl}piperazin-2-one] are 50 to 200 nM and over 10000 nM.
Regarding `Clc1ccc(-n2c(-c3cnc(N4CCOCC4)nc3)nc3ccncc32)cc1` [Example 51, 4-{5-[3-(4-Chlorophenyl)-3H-imidazo[4,5-c]pyridin-2-yl]pyrimidin-2-yl}morpholine], the values for the half-inhibitory concentration (IC50) in assay [1] and in assay [2] were under 50 nM and 1000 to 10000 nM, respectively.
`Fc1ccc(-n2c(-c3cnc(N4CCOCC4)nc3)nc3ccncc32)cc1` [Example 52, 4-{5-[3-(4-Fluorophenyl)-3H-imidazo[4,5-c]pyridin-2-yl]pyrimidin-2-yl}morpholine]: the IC50 was under 50 nM in assay [1] and over 10000 nM in assay [2].
In the same order, the values of `Fc1cnccc1-c1cc2ccncc2n1-c1ccc(Cl)cc1` [Example 152, 4-[1-(4-Chlorophenyl)-1H-pyrrolo[2,3-c]pyridin-2-yl]-3-fluoropyridine] are 200 to 1200 nM and 1000 to 10000 nM.
In the same order, the values of `Clc1ccc(-n2c(-c3ccc(CN4CCOCC4)nc3)nc3ccncc32)cc1` [Example 3, 4-({5-[3-(4-Chlorophenyl)-3H-imidazo[4,5-c]pyridin-2-yl]pyridin-2-yl}methyl) morpholine] are 50 to 200 nM and over 10000 nM.
Regarding `Clc1ccc(-n2c(-c3cnc(N4CCOCC4)nc3)cc3ccncc32)cc1` [Example 127, 4-{5-[1-(4-Chlorophenyl)-1H-pyrrolo[2,3-c]pyridin-2-yl]pyrimidin-2-yl}morpholine], the IC50 is under 50 nM in assay [1] and 100 to 1000 nM in assay [2].
For `NC(=O)N1CCN(c2ccc(-c3nc4ccncc4n3-c3ccc(F)cc3)cn2)CC1` [Example 92, 4-{5-[3-(4-Fluorophenyl)-3H-imidazo[4,5-c]pyridin-2-yl]pyridin-2-yl}piperazine-1-carboxamide], the figures for the IC50 in assay [1] and in assay [2] were under 50 nM and over 10000 nM, respectively.
In the same order, the values of `Cc1ccc(-n2c(-c3ccc(N4CCOCC4)nc3)nc3ccncc32)nc1` [Example 82, 4-{5-[3-(5-Methylpyridin-2-yl)-3H-imidazo[4,5-c]pyridin-2-yl]pyridin-2-yl}morpholine] are under 50 nM and over 10000 nM.
In the same order, the values of `Cc1ccc(-n2c(-c3ccc(N4CCOCC4)nc3)nc3ccncc32)c(F)c1` [Example 67, 4-{5-[3-(2-Fluoro-4-methylphenyl)-3H-imidazo[4,5-c]pyridin-2-yl]pyridin-2-yl}morpholine] are under 50 nM and 1000 to 10000 nM.
For the compound `CC1CN(c2ccc(-c3nc4ccncc4n3-c3ccc(F)cc3)cn2)CCO1` (centres unmarked) [Example 70, 4-{5-[3-(4-Fluorophenyl)-3H-imidazo[4,5-c]pyridin-2-yl]pyridin-2-yl}-2-methylmorpholine], the IC50 in assay [1] is under 50 nM; in assay [2], over 10000 nM.
For `O=C1CN(c2ncc(-c3cc4ccncc4n3-c3ccc(Cl)cc3)cn2)CCN1` [Example 128, 4-{5-[1-(4-Chlorophenyl)-1H-pyrrolo[2,3-c]pyridin-2-yl]pyrimidin-2-yl}piperazin-2-one], the results for the IC50 in assay [1] and in assay [2] were under 50 nM and over 10000 nM, respectively.
Regarding `O=c1cc(-c2cc3ccncc3n2-c2ccc(Cl)cc2)cc[nH]1` [Example 142, 4-[1-(4-Chlorophenyl)-1H-pyrrolo[2,3-c]pyridin-2-yl]-1,2-dihydropyridin-2-one], the IC50 lay in the range of 50 to 200 nM in assay [1] and 1000 to 10000 nM in assay [2].
Regarding `C[C@@H]1CN(c2ncc(-c3nc4ccncc4n3-c3ccc(F)cc3)cn2)C[C@H](C)O1` [Example 23, (2R,6S)-4-{5-[3-(4-Fluorophenyl)-3H-imidazo [4,5-c]pyridin-2-yl]pyrimidin-2-yl}-2,6-dimethylmorpholine], the results for the IC50 in assay [1] and in assay [2] were under 50 nM and over 10000 nM, respectively.
In the same order, the values of `Clc1ccc(-n2c(-c3cnc(N4CCNCC4)o3)nc3ccncc32)cc1` [Example 18, 1-{5-[3-(4-Chlorophenyl)-3H-imidazo[4,5-c]pyridin-2-yl]-1,3-oxazol-2-yl}piperazine dihydrochloride] are 50 to 200 nM and over 10000 nM.
In the same order, the values of `CC1(C)CN(c2ncc(-c3nc4ccncc4n3-c3ccc(F)cc3)cn2)CCO1` [Example 24, 4-{5-[3-(4-Fluorophenyl)-3H-imidazo[4,5-c]pyridin-2-yl]pyrimidin-2-yl}-2,2-dimethylmorpholine] are under 50 nM and over 10000 nM.
In the same order, the values of `Fc1ccc(-n2c(-c3ccc(N4CCOCC4)nc3)nc3ccncc32)cc1` [Example 54, 4-{5-[3-(4-Fluorophenyl)-3H-imidazo[4,5-c]pyridin-2-yl]pyridin-2-yl}morpholine] are 200 to 1200 nM and over 10000 nM.
